Results as given in patent US11912701B2, “Protein kinase inhibitors for promoting liver regeneration or reducing or preventing hepatocyte death” (HEPAREGENIX GMBH, priority 2018, dated 2024).
Where two headings read alike, the source gives them in different places.

Experiments:
MKK7 [1] = biological target: T1, MKK7 (Homo sapiens, UniProt O14733); test: 33PanQinase enzyme assay, MKK7; assay type: biochemical; parameters: purchased ProQinase GmbH, Freiburg, Germany (33PanQinase Assay Service); details: ratio IC50(MKK7)/IC50(MKK4)
T1 sequence (O14733 1-419): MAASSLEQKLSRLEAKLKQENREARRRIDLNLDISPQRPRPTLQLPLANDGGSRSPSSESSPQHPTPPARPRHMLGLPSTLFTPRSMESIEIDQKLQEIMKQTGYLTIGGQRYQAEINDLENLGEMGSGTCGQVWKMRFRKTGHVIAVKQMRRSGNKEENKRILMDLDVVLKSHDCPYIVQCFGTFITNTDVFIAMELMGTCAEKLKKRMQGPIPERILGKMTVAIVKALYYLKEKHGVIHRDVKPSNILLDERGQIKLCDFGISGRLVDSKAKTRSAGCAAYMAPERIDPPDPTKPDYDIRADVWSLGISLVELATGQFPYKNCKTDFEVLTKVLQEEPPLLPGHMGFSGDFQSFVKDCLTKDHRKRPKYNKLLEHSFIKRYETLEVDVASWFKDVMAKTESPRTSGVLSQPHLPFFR
In short: (§1)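 Radiometric 33PanQinase format: kinase with substrate, ATP and compound (added in 10% DMSO stock) incubated 60 min at 30° C, stopped with 2% H3PO4, ^33Pi incorporation counted by scintillation. Single-concentration data given as % residual activity; IC50 by least-squares fit, with selectivity as IC50(off-target)/IC50(MKK4).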

JNK1 [2] = biological target: T2, JNK1 (Homo sapiens, UniProt P45983); test: KINOMEscan competition binding assay, JNK1; parameters: M1/Q384; host or cells: HEK-293; details: ratio PoC (off-target)/PoC (MKK4)
In short: (§2)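 DNA-tagged kinases expressed in HEK-293 cells compete between immobilized ligand on blocked beads and test compound at 100 nM; kinase retained on beads quantified by qPCR of the tag.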
Target sequence in this assay (P45983 1-384 isoform P45983-2): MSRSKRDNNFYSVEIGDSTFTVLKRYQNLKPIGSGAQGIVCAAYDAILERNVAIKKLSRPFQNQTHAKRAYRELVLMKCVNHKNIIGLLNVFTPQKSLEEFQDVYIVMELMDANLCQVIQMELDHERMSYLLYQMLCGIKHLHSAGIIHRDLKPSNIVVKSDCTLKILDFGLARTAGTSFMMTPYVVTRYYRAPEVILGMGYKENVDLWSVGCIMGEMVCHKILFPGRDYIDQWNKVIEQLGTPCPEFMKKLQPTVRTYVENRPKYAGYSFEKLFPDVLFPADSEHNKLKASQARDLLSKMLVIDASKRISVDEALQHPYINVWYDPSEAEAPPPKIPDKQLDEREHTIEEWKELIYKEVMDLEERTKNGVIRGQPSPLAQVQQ

MKK7 [3] = biological target: T1, MKK7; test: KINOMEscan competition binding assay, MKK7; parameters: M1/R419; host or cells: HEK-293; details: ratio PoC (off-target)/PoC (MKK4)
In short: as §2

BRaf = biological target: T3, BRaf (Homo sapiens, UniProt P15056); test: KINOMEscan competition binding assay, BRaf; details: ratio PoC (off-target)/PoC (MKK4)
T3 construct: purchased ProQinase GmbH, Freiburg, Germany (33PanQinase Assay Service)
In short: as §2

JNK1 [4] = biological target: T2, JNK1; test: 33PanQinase enzyme assay, JNK1; assay type: biochemical; parameters: purchased ProQinase GmbH, Freiburg, Germany (33PanQinase Assay Service); details: ratio IC50(JNK1)/IC50(MKK4)
In short: as §1
Target sequence in this assay (P45983 whole entry): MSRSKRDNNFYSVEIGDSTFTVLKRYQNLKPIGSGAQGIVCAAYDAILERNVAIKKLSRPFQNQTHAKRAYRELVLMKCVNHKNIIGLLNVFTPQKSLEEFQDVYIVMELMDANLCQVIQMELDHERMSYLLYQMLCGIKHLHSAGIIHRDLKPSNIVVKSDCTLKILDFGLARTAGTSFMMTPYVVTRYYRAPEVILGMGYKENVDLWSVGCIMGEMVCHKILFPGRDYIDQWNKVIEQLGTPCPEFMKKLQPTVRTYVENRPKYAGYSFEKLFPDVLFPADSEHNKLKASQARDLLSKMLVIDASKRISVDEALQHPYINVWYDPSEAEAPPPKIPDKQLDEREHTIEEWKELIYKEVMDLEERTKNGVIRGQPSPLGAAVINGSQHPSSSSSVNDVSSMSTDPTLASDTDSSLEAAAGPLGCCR

MKK4 [5] = biological target: T4, MKK4 (Homo sapiens, UniProt P45985); test: KINOMEscan competition binding assay, MKK4; details: residual percent of control binding (PoC) at 100 nM
T4 construct: S84/D399; host or cells: HEK-293
T4 sequence (P45985 84-399): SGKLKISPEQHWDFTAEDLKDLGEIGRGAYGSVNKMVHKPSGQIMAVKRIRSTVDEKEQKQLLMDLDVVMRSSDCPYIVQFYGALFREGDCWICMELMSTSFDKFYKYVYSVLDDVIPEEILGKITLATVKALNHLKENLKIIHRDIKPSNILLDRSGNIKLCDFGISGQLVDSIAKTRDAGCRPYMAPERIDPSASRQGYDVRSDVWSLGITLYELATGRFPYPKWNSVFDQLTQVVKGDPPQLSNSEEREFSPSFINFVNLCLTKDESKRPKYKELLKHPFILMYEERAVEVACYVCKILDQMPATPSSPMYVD
In short: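 KINOMEscan competition of compound versus immobilized ligand for DNA-tagged MKK4 expressed in HEK-293 cells. Bound kinase was quantified by qPCR after elution.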

MKK4 [6] = biological target: T5, MKK4 (Homo sapiens, UniProt P45985); test: 33PanQinase enzyme assay, MKK4; assay type: biochemical; details: for IC50: assay 'IC50', read-out: Potency MKK4 (IC50); for remaining activity at 0.1 µM: read-out: Potency MKK4 (residual activity, assay at single concentration)
T5 construct: purchased ProQinase GmbH, Freiburg, Germany (33PanQinase Assay Service)
T5 sequence (P45985 1-399): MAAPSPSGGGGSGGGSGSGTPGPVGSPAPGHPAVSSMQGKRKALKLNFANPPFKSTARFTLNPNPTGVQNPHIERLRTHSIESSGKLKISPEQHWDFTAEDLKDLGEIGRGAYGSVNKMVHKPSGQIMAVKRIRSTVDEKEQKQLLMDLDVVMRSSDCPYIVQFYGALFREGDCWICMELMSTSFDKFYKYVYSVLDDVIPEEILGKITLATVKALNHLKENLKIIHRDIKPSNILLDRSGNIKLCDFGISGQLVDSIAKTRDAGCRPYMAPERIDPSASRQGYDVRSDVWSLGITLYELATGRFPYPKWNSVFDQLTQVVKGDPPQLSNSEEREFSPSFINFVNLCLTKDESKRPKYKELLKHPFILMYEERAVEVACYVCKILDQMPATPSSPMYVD
In short: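 Radiometric 33PanQinase assay: kinase, substrate, ATP and compound in standard buffer, 60 min at 30 °C; 33Pi incorporation read by scintillation counting.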

T3 sequence (P15056 whole entry, species assumed): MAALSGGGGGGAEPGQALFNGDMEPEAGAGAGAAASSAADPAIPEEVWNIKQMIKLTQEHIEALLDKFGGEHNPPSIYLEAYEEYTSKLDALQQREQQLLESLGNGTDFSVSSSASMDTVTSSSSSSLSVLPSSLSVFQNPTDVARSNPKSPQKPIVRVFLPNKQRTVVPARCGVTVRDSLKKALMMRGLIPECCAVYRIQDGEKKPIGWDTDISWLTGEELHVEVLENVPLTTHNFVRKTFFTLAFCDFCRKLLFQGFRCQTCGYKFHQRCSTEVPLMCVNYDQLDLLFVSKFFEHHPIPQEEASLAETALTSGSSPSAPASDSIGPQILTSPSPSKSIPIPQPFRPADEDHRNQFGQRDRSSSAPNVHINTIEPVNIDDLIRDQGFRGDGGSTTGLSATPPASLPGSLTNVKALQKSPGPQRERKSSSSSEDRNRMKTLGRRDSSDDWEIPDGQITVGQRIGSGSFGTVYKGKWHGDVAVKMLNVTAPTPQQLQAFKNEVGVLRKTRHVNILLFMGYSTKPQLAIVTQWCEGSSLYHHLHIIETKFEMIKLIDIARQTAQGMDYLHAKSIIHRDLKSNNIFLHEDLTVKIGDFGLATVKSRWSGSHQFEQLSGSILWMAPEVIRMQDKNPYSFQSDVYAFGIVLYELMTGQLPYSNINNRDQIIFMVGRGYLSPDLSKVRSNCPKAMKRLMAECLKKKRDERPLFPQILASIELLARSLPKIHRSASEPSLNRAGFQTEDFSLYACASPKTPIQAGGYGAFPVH

SMILES | Selectivity IVIKK7, IC50(off-target)/IC50(MKK4) (MKK7 [1]) | selectivity based on % Ctrl @100 nM vs. JNK1 (JNK1 [2]) | selectivity based on % Ctrl @100 nM vs. MKK7 (MKK7 [3]) | selectivity based on % Ctrl @100 nM vs. Braf (BRaf) | Selectivity JNK1, IC50(off-target)/IC50(MKK4) (JNK1 [4]) | MKK4 [% Ctrl @ 100 nM (MKK4 [5]) | IC50 (MKK4 [6]) [µM] | remaining activity at 0.1 µM (MKK4 [6]) [%] | remaining activity at 0.1 µM (MKK4 [6]; single concentration 100 nM) [%]
CCCS(=O)(=O)Nc1ccc(F)c(C(=O)c2c[nH]c3ncc(-c4cnc[nH]4)cc23)c1F [Example 83, N-(3-(5-(1H-imidazol-5-yl)-1H-pyrrolo[2,3-b]pyridine-3-carbonyl)-2,4-difluorophenyl)propane-1-sulfonamide] | ++· | +++ (Ratio > 100) | +++ (Ratio > 100) | ◯ (3 ≥ Ratio) | ◯ (3 ≥ IC50(off-target)/IC50(MKK4)) | +++ (PoC < 1) | 0.1 to 1 | – | –
CCCS(=O)(=O)Nc1ccc(F)c(C(=O)c2c[nH]c3ncc(-c4ccn[nH]4)cc23)c1F [Example 84, N-(3-(5-(1H-pyrazol-5-yl)-1H-pyrrolo[2,3-b]pyridine-3-carbonyl)-2,4-difluorophenyl)propane-1-sulfonamide] | +++ (IC50(off-target)/IC50(MKK4) > 100) | +++ (Ratio > 100) | +++ (Ratio > 100) | ◯ (3 ≥ Ratio) | ◯ (3 ≥ IC50(off-target)/IC50(MKK4)) | +++ (PoC < 1) | 0.1 to 1 | – | –
CCCS(=O)(=O)Nc1ccc(F)c(C(=O)c2c[nH]c3ncc(-c4cccnc4)cc23)c1F [Example 58] | ++ (100 ≥ IC50(off-target)/IC50(MKK4) > 10) | +++ (Ratio > 100) | +++ (Ratio > 100) | ++ (100 ≥ ratio > 10) | ◯ (3 ≥ IC50(off-target)/IC50(MKK4)) | +++ (PoC < 1) | 0.1 to 1 | – | –
CCCS(=O)(=O)Nc1ccc(F)c(C(=O)c2c[nH]c3ncc(-c4csc(SC)n4)cc23)c1F [Example 87, N-(2,4-difluoro-3-(5-(2-(methylthio)thiazol-4-yl)-1H-pyrrolo[2,3-b]pyridine-3-carbonyl)phenyl)propane-1-sulfonamide] | ◯ (3 ≥ IC50(off-target)/IC50(MKK4)) | ◯ (3 ≥ Ratio) | ◯ (3 ≥ Ratio) | ◯ (3 ≥ Ratio) | ◯ (3 ≥ IC50(off-target)/IC50(MKK4)) | ◯ (30 ≤ PoC) | > 10 | – | –
CN(C)c1ncc(-c2cnc3[nH]cc(C(=O)c4ccc(F)c(NS(=O)(=O)CCC(F)(F)F)c4F)c3c2)cn1 [Example 178, N-(3-(5-(2-(dimethylamino)pyrimidin-5-yl)-1H-pyrrolo[2,3-b]pyridine-3-carbonyl)-2,6-difluorophenyl)-3,3,3-trifluoropropane-1-sulfonamide] | +++ (IC50(off-target)/IC50(MKK4) > 100) | +++ (Ratio > 100) | +++ (Ratio > 100) | +++ (Ratio > 100) | +++ (IC50(off-target)/IC50(MKK4) > 100) | +++ (PoC < 1) | < 0.1 | – | –
CCCS(=O)(=O)Nc1ccc(F)c(C(=O)c2c[nH]c3ncc(-c4nc[nH]n4)cc23)c1F [Example 85, N-(3-(5-(1H-1,2,4-triazol-3-yl)-1H-pyrrolo[2,3-b]pyridine-3-carbonyl)-2,4-difluorophenyl)propane-1-sulfonamide] | ++ (100 ≥ IC50(off-target)/IC50(MKK4) > 10) | ++ (100 ≥ ratio > 10) | ++ (100 ≥ ratio > 10) | ◯ (3 ≥ Ratio) | ◯ (3 ≥ IC50(off-target)/IC50(MKK4)) | + (3 ≤ PoC < 30) | 1 to 10 | – | –
CCCS(=O)(=O)Nc1ccc(F)c(C(=O)c2c[nH]c3ncc(C4=CCNCC4)cc23)c1F [Example 242] | ++ (100 ≥ IC50(off-target)/IC50(MKK4) > 10) | + (10 ≥ ratio > 3) | + (10 ≥ ratio > 3) | ◯ (3 ≥ Ratio) | ◯ (3 ≥ IC50(off-target)/IC50(MKK4)) | + (3 ≤ PoC < 30) | > 10 | – | –
Cc1cccc(CS(=O)(=O)Nc2ccc(F)c(C(=O)c3c[nH]c4ncc(-c5ccc(Cl)cc5)cc34)c2F)c1 [Example 37, N-(3-(5-(4-chlorophenyl)-1H-pyrrolo[2,3-b]pyridine-3-carbonyl)-2,4-difluoro-phenyl)-1-(m-tolyl)methanesulfonamide] | – | + (10 ≥ ratio > 3) | + (10 ≥ ratio > 3) | + (10 ≥ ratio > 3) | – | + (3 ≤ PoC < 30) | – | 70 to 90 | –
CCCS(=O)(=O)Nc1ccc(C#N)c(C(=O)c2c[nH]c3ncc(-c4ccc(Cl)cc4)cc23)c1F [Example 61, N-(3-(5-(4-chlorophenyl)-1H-pyrrolo[2,3-b]pyridine-3-carbonyl)-4-cyano-2-fluorophenyl)propane-1-sulfonamide] | – | + (10 ≥ ratio > 3) | + (10 ≥ ratio > 3) | ◯ (3 ≥ Ratio) | – | ◯ (30 ≤ PoC) | – | – | > 90
